Experimental findings from ChEMBL document CHEMBL1141136, “Discovery of potent poly(ADP-ribose) polymerase-1 inhibitors from the modification of indeno[1,2-c]isoquinolinone” (J Med Chem, 2005) are described below.

Each structure is given as a SMILES string. Several values for one entry are separate records, joined by “and”; a condition that tells them apart may be missing. Equal entries are not always repeated.

The target of the assay is Poly [ADP-ribose] polymerase 1 (Homo sapiens, UniProt P09874). The assay is described as follows: Inhibitory concentration against purified poly ADP-ribose polymerase-1 done in PARP inhibition assay kit.
Chain of Poly [ADP-ribose] polymerase 1 (P09874 whole entry): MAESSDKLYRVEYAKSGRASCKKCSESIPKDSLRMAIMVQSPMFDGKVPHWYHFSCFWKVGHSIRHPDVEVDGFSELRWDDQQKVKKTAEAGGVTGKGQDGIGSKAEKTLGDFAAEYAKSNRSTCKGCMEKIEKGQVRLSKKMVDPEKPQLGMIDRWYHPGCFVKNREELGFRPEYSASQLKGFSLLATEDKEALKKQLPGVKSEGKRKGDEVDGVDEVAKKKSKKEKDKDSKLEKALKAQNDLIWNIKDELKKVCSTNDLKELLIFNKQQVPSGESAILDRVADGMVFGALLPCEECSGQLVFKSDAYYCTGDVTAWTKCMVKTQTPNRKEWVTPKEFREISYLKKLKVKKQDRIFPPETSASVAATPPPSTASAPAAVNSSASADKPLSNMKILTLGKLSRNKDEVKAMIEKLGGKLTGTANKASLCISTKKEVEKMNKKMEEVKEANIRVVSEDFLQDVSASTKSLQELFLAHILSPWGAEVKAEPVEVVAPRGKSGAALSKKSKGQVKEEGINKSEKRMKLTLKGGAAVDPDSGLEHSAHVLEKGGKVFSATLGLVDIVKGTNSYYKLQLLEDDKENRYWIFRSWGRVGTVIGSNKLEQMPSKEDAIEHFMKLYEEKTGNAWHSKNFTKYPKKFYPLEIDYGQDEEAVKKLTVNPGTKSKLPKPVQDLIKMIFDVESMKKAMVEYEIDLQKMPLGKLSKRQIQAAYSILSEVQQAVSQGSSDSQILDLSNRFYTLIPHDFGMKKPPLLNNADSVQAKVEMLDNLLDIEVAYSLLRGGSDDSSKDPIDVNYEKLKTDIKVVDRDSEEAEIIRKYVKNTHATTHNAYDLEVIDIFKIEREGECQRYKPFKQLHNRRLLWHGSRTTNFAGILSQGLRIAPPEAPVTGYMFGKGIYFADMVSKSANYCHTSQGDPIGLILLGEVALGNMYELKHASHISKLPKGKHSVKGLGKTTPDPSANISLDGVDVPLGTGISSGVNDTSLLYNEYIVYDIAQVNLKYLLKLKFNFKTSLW

Compound `O=c1[nH]c2c(c3ccccc13)Cc1cc([N+](=O)[O-])ccc1-2` had an IC50 of 0.3 µM.

The compound `O=S(=O)(NCCCNN1CCOCC1)c1cc2c(cc1F)-c1nc(O)c3ccccc3c1C2` had an IC50 of 0.45 µM.

`O=c1[nH]c2c(c3ccccc13)Cc1cc(F)ccc1-2` returned a half-maximal inhibitory concentration (IC50) of 0.65 µM. This IC50 and that of the compound before are within 1.5-fold of each other.

As for `O=C(CN1CCOCC1)Nc1ccc2c(c1)-c1nc(O)c3ccccc3c1C2`, the IC50 is > 3 µM and 0.4 µM.

In turn, `Nc1ccc2c(c1)Cc1c-2[nH]c(=O)c2ccccc12` came in with an IC50 of 0.098 µM.

`O=c1[nH]c2c(c3ccccc13)Cc1ccccc1-2`: the IC50 was above 3 µM.

Take `Nc1ccc2c(c1)-c1[nH]c(=O)c3ccccc3c1C2`: the concentration for half-maximal inhibition (IC50) is 0.3 µM.

In turn, `CN1CCN(CC(=O)Nc2ccc3c(c2)-c2[nH]c(=O)c4ccccc4c2C3)CC1` returned an IC50 above 3 µM.

In turn, `O=c1[nH]c2c(c3ccccc13)Cc1cc(S(=O)(=O)NCCCn3ccnc3)ccc1-2` yielded an IC50 of 0.394 µM. This lies in the sub-micromolar range.

`O=c1[nH]c2c(c3ccccc13)Cc1cc(S(=O)(=O)NCCCc3ccccc3)ccc1-2`: the IC50 was above 3 µM.

`Oc1nc2c(c3ccccc13)Cc1ccc(F)cc1-2` had an IC50 of 0.5 µM.

Consider `O=[N+]([O-])c1ccc2c(c1)-c1nc(O)c3ccccc3c1C2`, for which the 50% inhibitory concentration (IC50) was determined as 0.5 µM.

As to `O=S(=O)(O)c1ccc2c(c1)Cc1c-2nc(O)c2ccccc12`, half-maximal inhibition (IC50) required 0.7 µM.

`O=c1[nH]c2c(c3ccccc13)Cc1cc(S(=O)(=O)n3ccnc3)c(F)cc1-2` returned an IC50 of 0.5 µM.
